Measured values: patent publication US20100113415A1, “EPHA4 RTK INHIBITORS FOR TREATMENT OF NEUROLOGICAL AND NEURODEGENERATIVE DISORDERS AND CANCER” (priority 2008, published 2010)

Tests used:
[1] = tested on: Primary Rat cortical astrocytes; experiment: Toxicity (percent of cell death), astrocytes; assay type: cell-based; settings: at 20 μM
Description: EphA4 kinase inhibition is assessed by both an enzymatic assay measuring the phosphorylation of a purified recombinant EphA4 kinase and a cell-based assay using the activation of pGas-Luciferase system in EphA4-transfected CHO-K1 cells. The functional effects of EphA4 RTK inhibitors on cell motility and proliferation is evaluated by the scratch wound assay. The effect of EphA4 RTK inhibitors is also directly measured on the cell confluence. The counterscreen assays (cell counterscreen, Src, Jak2 and P38α kinase) identified other potential inhibitory activities of compounds unrelated to EphA4 kinase. The toxicity is measured by the percent of cell death in the different cell assays. Values represent IC50 and IP in μM calculated from the dose-response curves. Values in parentheses give the maximum percent inhibition.

Jak2 = biological target: T1, Jak2 (Homo sapiens, UniProt O60674); experiment: Jak2 kinase counterscreen enzymatic assay (TR-FRET); assay type: biochemical; settings: 5 μM ATP
T1 construct: purchased Cell Signaling, USA
T1 sequence (O60674 whole entry, species assumed): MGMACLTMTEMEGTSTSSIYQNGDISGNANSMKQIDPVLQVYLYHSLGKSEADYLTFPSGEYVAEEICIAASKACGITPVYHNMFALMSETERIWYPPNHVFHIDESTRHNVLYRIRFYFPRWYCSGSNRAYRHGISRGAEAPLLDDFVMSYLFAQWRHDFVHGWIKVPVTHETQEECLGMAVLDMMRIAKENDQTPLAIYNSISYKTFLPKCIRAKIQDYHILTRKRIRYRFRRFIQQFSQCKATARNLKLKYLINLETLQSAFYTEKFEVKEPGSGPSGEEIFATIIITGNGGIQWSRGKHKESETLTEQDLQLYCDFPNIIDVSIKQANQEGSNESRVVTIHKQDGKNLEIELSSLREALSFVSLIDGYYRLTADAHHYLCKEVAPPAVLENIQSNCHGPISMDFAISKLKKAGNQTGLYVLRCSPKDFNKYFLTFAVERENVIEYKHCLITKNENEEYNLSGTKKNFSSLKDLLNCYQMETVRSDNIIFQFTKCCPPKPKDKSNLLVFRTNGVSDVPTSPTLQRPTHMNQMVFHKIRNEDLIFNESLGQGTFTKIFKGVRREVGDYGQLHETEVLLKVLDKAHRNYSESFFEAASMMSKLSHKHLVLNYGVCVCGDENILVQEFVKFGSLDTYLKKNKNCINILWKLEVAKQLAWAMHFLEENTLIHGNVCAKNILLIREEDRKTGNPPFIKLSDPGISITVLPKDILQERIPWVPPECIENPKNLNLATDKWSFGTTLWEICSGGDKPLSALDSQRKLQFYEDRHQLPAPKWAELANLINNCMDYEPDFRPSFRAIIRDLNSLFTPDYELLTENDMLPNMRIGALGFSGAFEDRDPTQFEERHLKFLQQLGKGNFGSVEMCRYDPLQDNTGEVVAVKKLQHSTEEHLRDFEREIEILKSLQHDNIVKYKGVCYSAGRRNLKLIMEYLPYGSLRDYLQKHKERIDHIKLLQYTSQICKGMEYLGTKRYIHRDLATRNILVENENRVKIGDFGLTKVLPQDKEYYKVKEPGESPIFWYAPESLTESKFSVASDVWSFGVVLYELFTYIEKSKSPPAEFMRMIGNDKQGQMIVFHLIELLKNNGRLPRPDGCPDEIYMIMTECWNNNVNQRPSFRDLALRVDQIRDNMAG
Description: Counterscreen assays were developed for the tyrosine kinases src kinase and Jak2 kinase, with a format essentially identical to the EphA4 kinase TR-FRET format. Jak2 (50 ng) (Cell Signaling, USA) was incubated with 0.5 μM of biotinylated FLT3 peptide (Cell Signaling, USA) in presence of 5 μM of ATP (Sigma). P60c-src (10 U/well) (Upstate biotechnology, USA) was incubated with biotinylated Poly(Glu Tyr) peptide (100 nM) in presence of 0.5 μM of ATP. The enzymatic reaction was stopped after 60 min by adding 15 mM EDTA. The detection reaction and energy transfer signal measurements were similar to those previously described. Results were expressed as ratios of the absorbencies 665/615.
Compounds were titrated in duplicate at 11 points concentration starting at 100 μM with a 3 fold increment. Compounds were diluted in DMSO. […] Percentage inhibition for each compound was then calculated based on the value of the 100% inhibition. Concentration-response curves were represented and the concentrations for 50% inhibition (IC50) were calculated.

[2] = tested on: Primary Rat cortical astrocytes; experiment: Scratch wound assay, astrocytes; assay type: cell-based; settings: from AUC of % wound confluence; for IC50: Rattus norvegicus, Astrocyte, inflexion point, read-out: Scratch Assay Astrocytes IP
Description: Primary Rat cortical astrocytes were purchased from Lonza (Walkersvelle Inc., MA, USA). Cells were plated in culture flasks at a density of 1.106-3.106 cells/ml, and maintained at 37° C. and 95% CO2/5% O2, in Astrocyte Growth Medium Bulletkit™ (Lonza Walkersville Inc., MA, USA). When astrocyte cultures reached confluence, cells were trypsinized and replated at 6.105 cells/ml onto 24 well ImageLock™ plate (Essen Instruments, MI, USA).
Scratch wound assays are commonly used to assess the effects of drugs and drug candidates on the cellular proliferation and/or migration associated with wound closing. The IncuCyte™ system (Essen Instruments, MI, USA), an automated imaging platform, provides ongoing, real-time images and quantitative data generated throughout the wound-closing process. Cells were maintained in 24 well ImageLock™ (Essen Instruments, MI, USA) at 37° C. and 95% CO2/5% O2, until a confluent monolayer was achieved. A single scratch wound was then created in each well using the Essen Woundmaker™ (Essen Instruments, MI, USA). It induced a mechanical scratch of the cell monolayer using plastic pipette tips (10-20 μl pipette tips, Eppendorff). Dead cells and other debris produced by the scratch were immediately washed with regular growth media. Cells were then treated with pharmacological agents and were placed into the IncuCyte™ at 37° C. and 95% CO2/5% O2, for two to three days. During this time, the wound area within each well was repeatedly imaged at fixed time intervals (every three hours). The IncuCyte™ scratch wound software generates a “wound mask” for each well. An initial wound mask is created for the first image (at time 0) that clearly delineates the border of the wound. A revised mask is generated for each subsequent image to track wound closure. Wound closure can be automatically monitored using the wound confluence (% confluence). Wound confluence can be graphed over time to evaluate the characteristics of wound closing in the presence of pharmacological agents.
The calculation of the area under the curve (AUC) of the % confluence function of the time gave a quantitative measurement of compounds efficacy on the scratch wound closing. Compounds were titrated in quadruplicate at 5 points concentration starting at 20 μM with a two-fold increment. The percentage of inhibition was calculated from the AUCs at each dose in comparison with the AUCs of the control wells (1% DMSO). Concentration-response curves were represented and the concentrations at the inflexion point (IP) were calculated. The maximum effect was given by the maximum percent inhibition.

CHO-K1 cells = experiment: Cell viability (Cell Glo Assay) on parallel plates of the EphA4 cell assay; assay type: cell-based, Chinese Hamster; settings: at 100 μM
Description: Transfection and Luciferase Assay: CHO-K1 cells were plated in T-175 cell culture bottle in DMEM medium supplemented with 10% fetal bovine serum, 1 mM sodium pyruvate, 2 mM L-glutamine and 1.5 g/L sodium bicarbonate. When cell reached 70-80% confluence, transfections were performed in T-175 culture flasks, using Lipofectamine 2000™ transfection reagent (Invitrogen) according to the manufacturer's directions. For the luciferase assay CHO-K1 cells were co-transfected the next day with 50 μg of pGAS-Luc, 70 μg of EphA4, and 5 μg of empty vector pRL-CMV, which encoded the Renilla luciferase, and was included in the transfection mix for normalization. […] Cells were lysed the next day using the Reporter Lysis Buffer (Promega), and the luciferase activity was measured using the Dual Luciferase Assay (Promega) following the manufacturer's directions. The Firefly and Renilla luminescences are read consecutively on a Top-Count (Perkin-Elmer). Results are expressed as a ratio of the two luminescence: Firefly Luciferase/Renilla Luciferase. Cell viability was assessed on parallel plates using the Cell Glo Assay (Promega) following the manufacturer's directions. Results are expressed as percent of cell death in comparison with vehicle-treated wells.

[3] = biological target: T2, human form of EphA4 receptor over-expressed in CHO-K1 cells (Homo sapiens, UniProt P54764); experiment: EphA4 cell-based assay (pGAS-Luc luciferase reporter in EphA4-transfected CHO-K1 cells); settings: for IC50: inflexion point, luciferase, read-out: EphA4 Cell Assay IP; for EphA4 Cell Assay maximum percent inhibition: value in parentheses
T2 construct: expressed in transfected cells; host or cells: CHO-K1
T2 sequence (P54764 20-986): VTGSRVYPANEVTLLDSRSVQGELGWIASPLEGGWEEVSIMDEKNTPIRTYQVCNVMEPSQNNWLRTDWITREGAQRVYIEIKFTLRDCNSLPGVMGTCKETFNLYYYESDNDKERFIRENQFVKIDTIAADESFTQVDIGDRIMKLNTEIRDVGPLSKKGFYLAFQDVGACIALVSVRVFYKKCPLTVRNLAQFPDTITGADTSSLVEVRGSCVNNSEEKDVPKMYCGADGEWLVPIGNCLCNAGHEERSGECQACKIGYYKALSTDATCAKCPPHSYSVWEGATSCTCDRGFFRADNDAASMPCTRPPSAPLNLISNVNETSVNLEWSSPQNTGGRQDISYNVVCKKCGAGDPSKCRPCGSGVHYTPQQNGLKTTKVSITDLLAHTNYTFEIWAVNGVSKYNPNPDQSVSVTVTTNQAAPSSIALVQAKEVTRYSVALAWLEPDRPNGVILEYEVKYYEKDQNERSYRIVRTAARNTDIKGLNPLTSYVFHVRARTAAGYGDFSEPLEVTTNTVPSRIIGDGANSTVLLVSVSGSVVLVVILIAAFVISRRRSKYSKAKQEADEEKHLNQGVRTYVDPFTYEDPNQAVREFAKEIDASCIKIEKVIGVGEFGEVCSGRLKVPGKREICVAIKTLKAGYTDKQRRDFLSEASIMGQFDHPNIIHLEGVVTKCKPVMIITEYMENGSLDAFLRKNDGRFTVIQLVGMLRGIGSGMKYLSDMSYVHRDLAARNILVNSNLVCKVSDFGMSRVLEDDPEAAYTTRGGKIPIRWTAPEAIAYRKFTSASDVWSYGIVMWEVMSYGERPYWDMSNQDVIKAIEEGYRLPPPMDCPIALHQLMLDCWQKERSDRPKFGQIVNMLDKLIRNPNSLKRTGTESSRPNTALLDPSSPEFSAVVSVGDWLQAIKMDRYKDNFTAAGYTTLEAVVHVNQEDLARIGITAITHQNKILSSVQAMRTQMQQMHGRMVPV
Text: A cell-based assay was used to measure the potency of the compounds on the human form of EphA4 receptor over-expressed in Chinese Hamster Ovary cell line, CHO-K1 cells (Merck Collection). The cell assay was based on a novel signaling pathway of EphA4, which involves activation of the tyrosine kinase Jak2 and the transcriptional activator Stat3 (39).
Reagents: The expression constructs of EphA4 were subcloned into the expression vector pCMV6-XL5 (Origene, MD, USA) (clone from Merck Kinase Library). The luciferase construct that was linked to the Stat1-responsive enhancer (pGAS-Luc) was bought from Stratagene (USA). The renilla construct that linked to an empty vector CMV was bought from Promega (USA).
Transfection and Luciferase Assay: CHO-K1 cells were plated in T-175 cell culture bottle in DMEM medium supplemented with 10% fetal bovine serum, 1 mM sodium pyruvate, 2 mM L-glutamine and 1.5 g/L sodium bicarbonate. When cell reached 70-80% confluence, transfections were performed in T-175 culture flasks, using Lipofectamine 2000™ transfection reagent (Invitrogen) according to the manufacturer's directions. For the luciferase assay CHO-K1 cells were co-transfected the next day with 50 μg of pGAS-Luc, 70 μg of EphA4, and 5 μg of empty vector pRL-CMV, which encoded the Renilla luciferase, and was included in the transfection mix for normalization. Six hours after transfection the cells were trypsinized and plated at 4.105 cells/ml into 96 well Black/Clear Poly-D-Lysine coated plates (Biocoat) that had been pre-spotted with compounds. Cells were lysed the next day using the Reporter Lysis Buffer (Promega), and the luciferase activity was measured using the Dual Luciferase Assay (Promega) following the manufacturer's directions. The Firefly and Renilla luminescences are read consecutively on a Top-Count (Perkin-Elmer). Results are expressed as a ratio of the two luminescence: Firefly Luciferase/Renilla Luciferase. Cell viability was assessed on parallel plates using the Cell Glo Assay (Promega) following the manufacturer's directions. Results are expressed as percent of cell death in comparison with vehicle-treated wells.
Compounds were titrated in duplicate at 10 points concentration starting at 100 μM with a 1.5 fold increment. Concentration-response curves were represented and the concentrations at the inflexion point (IP) were calculated. The maximum effect was given by the maximum percent inhibition calculated from the results of the control wells (containing only DMSO).

Row | Structure (SMILES) | Max Toxicity Astrocytes % of cell death [1] [% at 20 μM] | IC50 (Jak2) [nM] | IC50 [2] [nM] | Scratch Assay Astrocytes max inhibition in % [2] [%] | Max Toxicity Cell Assay % of cell death (CHO-K1 cells) [% at 100 μM] | IC50 [3] [nM] | EphA4 Cell Assay maximum percent inhibition [3] [%]
1 | CC1CCc2c(-c3ccccc3Cl)nc3[nH]nc(N)c3c2C1 (centres unmarked) [Example 63] | 5 | > 100000 | 49000 | 33 | 68 | 7200 | 55
2 | Cc1ccccc1-c1nc2[nH]nc(N)c2c2c1CCC(C)(C)C2 [Example 67] | 12.5 | 1000 | 1400 | 66 | 76 | 2300 | 46
